The source of these data is BindingDB's records for doi:10.7270/Q24T6GSH (The Scripps Research Institute Molecular Screening Center, 2007).

Where a name gives a salt, the structure may show the parent alone.

The EC50 is the concentration needed to bring the measured effect to its halfway point.

The target in the first experiment is T1, Isoform 2 of Nuclear receptor ROR-alpha (Alpha-2) (Homo sapiens, UniProt P35398).
T1 sequence (P35398 whole entry): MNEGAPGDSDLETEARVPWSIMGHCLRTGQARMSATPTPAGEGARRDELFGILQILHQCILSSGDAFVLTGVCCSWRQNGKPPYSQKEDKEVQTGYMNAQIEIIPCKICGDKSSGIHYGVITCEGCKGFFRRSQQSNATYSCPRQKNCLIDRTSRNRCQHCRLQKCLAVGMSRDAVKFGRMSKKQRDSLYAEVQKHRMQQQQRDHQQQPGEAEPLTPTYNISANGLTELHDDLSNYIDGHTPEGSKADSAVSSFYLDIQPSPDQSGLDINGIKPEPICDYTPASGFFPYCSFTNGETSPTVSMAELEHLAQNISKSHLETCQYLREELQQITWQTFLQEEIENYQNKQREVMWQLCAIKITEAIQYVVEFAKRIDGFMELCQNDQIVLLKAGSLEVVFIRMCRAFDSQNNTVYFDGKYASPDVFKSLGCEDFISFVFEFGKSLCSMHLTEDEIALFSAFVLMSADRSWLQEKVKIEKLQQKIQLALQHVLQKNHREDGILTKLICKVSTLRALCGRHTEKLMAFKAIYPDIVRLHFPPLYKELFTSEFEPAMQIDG
The experiment can be described thus: RORA Gal4 reporter activation in CHO-K1 cells, dose response, counter-screen for SF-1 activator project, cell-based, Gal4-RORA LBD, luciferase luminescence (AID 675).
Settings: not given
Background: A counterscreen serves to expose hits that act by an unwanted route or on another target.
Regarding `Cc1cccnc1Nc1nc(-c2ccc(O)cc2O)cs1` [4-[2-(3-Methyl-pyridin-2-ylamino)-thiazol-4-yl]-benzene-1,3-diol], a half-maximal effect (EC50) was put at 1890 nM.

`CC(C)(CC(=O)O)Cc1nc(-c2ccc(Cl)cc2)no1` [4-[3-(4-chlorophenyl)-1,2,4-oxadiazol-5-yl]-3,3-dimethyl-butanoic acid] gave a 50% effective concentration (EC50) greater than 11000 nM.

`CCOC(=O)N1CCN(S(=O)(=O)c2ccc(C(=O)Nc3sc4c(c3C#N)CCC4)cc2)CC1` [4-[4-[(3-cyano-5,6-dihydro-4H-cyclopenta[b]thiophen-2-yl)carbamoyl]phenyl]sulfonylpiperazine-1-carboxylic acid ethyl ester] yielded a 50% effective concentration (EC50) of 636 nM.

`COC(=O)c1ccc(C(=O)C(C#N)c2nc3ccccc3s2)cc1` (stereo not drawn) [4-[(2Z)-2-(3H-1,3-benzothiazol-2-ylidene)-2-cyano-1-oxoethyl]benzoic acid methyl ester] had an EC50 of 1610 nM.

Molecule `Cc1ccc(C(=O)Nc2ncc(Cc3ccccc3)s2)o1` [5-Methyl-furan-2-carboxylic acid (5-benzyl-thiazol-2-yl)-amide] returned an EC50 greater than 407 nM.

Take `Cc1ccc(C(=O)Nc2ncc(Cc3ccc(F)cc3)s2)o1` [5-Methyl-furan-2-carboxylic acid [5-(4-fluoro-benzyl)-thiazol-2-yl]-amide]: the concentration for a half-maximal effect (EC50) is greater than 407 nM.

`O=C(Nc1nccs1)c1ccc(COc2ccc(F)cc2)o1` [5-[(4-fluoranylphenoxy)methyl]-N-(1,3-thiazol-2-yl)furan-2-carboxamide] came in with an EC50 of 4710 nM.

`Nc1c(C(=O)NCc2ccco2)nnn1-c1ccccc1` [5-amino-N-(2-furanylmethyl)-1-phenyl-4-triazolecarboxamide] had a half-maximal effective concentration (EC50) greater than 3670 nM.

`CC1(C)Cc2c(sc(NC(=O)c3ccc(Br)o3)c2C#N)CO1` [5-bromanyl-N-(3-cyano-5,5-dimethyl-4,7-dihydrothieno[2,3-c]pyran-2-yl)furan-2-carboxamide]: the EC50 was found to be 752 nM.

The molecule `COc1ccc(OC)c2sc(NC(=O)c3ccc(Br)s3)nc12` [5-bromanyl-N-(4,7-dimethoxy-1,3-benzothiazol-2-yl)thiophene-2-carboxamide] came in with a concentration giving a half-maximal response (EC50) greater than 99000 nM.

Turning to `O=C(Nc1cccc(-c2nnc(-c3ccccc3)o2)c1)c1ccc(Br)o1` [5-bromanyl-N-[3-(5-phenyl-1,3,4-oxadiazol-2-yl)phenyl]furan-2-carboxamide], the EC50 is 8560 nM.

For the molecule `CCc1ccc(C(=O)NCc2cccs2)s1` [5-ethyl-N-(2-thenyl)thiophene-2-carboxamide], the EC50 was greater than 3670 nM.

Molecule `c1ccc(-c2cnc(CSc3nnc4ccccn34)o2)cc1` [5-phenyl-2-([1,2,4]triazolo[4,3-a]pyridin-3-ylsulfanylmethyl)-1,3-oxazole] displayed a 50% effective concentration (EC50) greater than 1220 nM.

Take `COc1ccc(-c2cn3ccsc3n2)cc1` [6-(4-methoxyphenyl)imidazo[2,1-b][1,3]thiazole]: the 50% effective concentration (EC50) was found to be 283 nM. In other words, the sub-micromolar range.

In turn, `CCOC(=O)c1cnc2c(-c3ccccc3)cnn2c1N` [7-amino-3-phenyl-6-pyrazolo[1,5-a]pyrimidinecarboxylic acid ethyl ester] had an EC50 of 356 nM.

Molecule `COCC(C)NC(=O)c1noc2c1CCc1cc(OC)ccc1-2` (stereo not drawn) [7-methoxy-N-(1-methoxypropan-2-yl)-4,5-dihydrobenzo[g][1,2]benzoxazole-3-carboxamide] yielded an EC50 of 1270 nM.

With `CCc1nc(Nc2ccc3nccnc3c2)c2oc3ccccc3c2n1` [(2-ethylbenzofuro[3,2-d]pyrimidin-4-yl)-quinoxalin-6-yl-amine;hydrochloride], the concentration for a half-maximal effect (EC50) was greater than 99000 nM.

The molecule `CC(=Nc1cccc(O)c1)c1sc2ccccc2c1O` [(2Z)-2-[1-(3-hydroxyanilino)ethylidene]-1-benzothiophen-3-one] displayed an EC50 greater than 3670 nM.

`COC(=O)CSc1nc2cc(C)ccc2cc1C#N` [(3-Cyano-7-methyl-quinolin-2-ylsulfanyl)-acetic acid methyl ester]: the half-maximal effective concentration (EC50) was greater than 1220 nM.

In turn, `Cc1ccc(C2C(C(=O)c3cnn(-c4ccccc4)c3C)C(=O)C(=O)N2CCN(C)C)o1` (stereo not drawn) [(4E)-1-[2-(dimethylamino)ethyl]-4-[hydroxy-(5-methyl-1-phenyl-4-pyrazolyl)methylidene]-5-(5-methyl-2-furanyl)pyrrolidine-2,3-dione] gave an EC50 of 4130 nM.

In turn, `CC(=NC1CCCC1)c1c(C)[nH]n(-c2nc3ccccc3s2)c1=O` [(4Z)-2-(1,3-benzothiazol-2-yl)-4-[1-(cyclopentylamino)ethylidene]-5-methylpyrazol-3-one] displayed a concentration for a half-maximal effect (EC50) greater than 1220 nM.

Molecule `Cn1c(-c2ccc3c(c2)OCO3)cnc1NCc1ccccc1` [(5-Benzo[1,3]dioxol-5-yl-1-methyl-1H-imidazol-2-yl)-benzyl-amine] displayed an EC50 of 11200 nM.

In turn, `Fc1ccc2nc(Nc3nc4c(s3)CCCC4)sc2c1` [(6-fluoro-1,3-benzothiazol-2-yl)-(4,5,6,7-tetrahydro-1,3-benzothiazol-2-yl)amine] displayed an EC50 of 639 nM. This EC50 lies about 18-fold lower than the previous one.

With `CC(=N)C(C#N)C(=O)CSc1ccc2c(c1)OCCO2` (stereo not drawn) [(E)-3-amino-2-[2-(2,3-dihydro-1,4-benzodioxin-6-ylsulfanyl)acetyl]but-2-enenitrile], the EC50 came out at 1160 nM.

As to `O=C(Nc1ccc(NC(=O)c2cccs2)cn1)c1ccco1` [Furan-2-carboxylic acid {5-[(thiophene-2-carbonyl)-amino]-pyridin-2-yl}-amide], the half-maximal effective concentration (EC50) came to 2710 nM.

With `CC(=O)Nc1ccc(-c2cc3ccccc3o2)cc1` [MLS000036584], the EC50 came to 556 nM.

Regarding `O=C(Nc1nnc(C2CCCCC2)s1)c1ccco1` [MLS000039439], it took 596 nM to reach a half-maximal effect (EC50). The EC50 values of the last two molecules are within 1.5-fold of each other.

Regarding `CC(=O)c1c(C)[nH]c(C(=O)NCCc2cccc(C)c2)c1C` [MLS000045238], the EC50 was 2930 nM.

Turning to `O=C(NCC1CCCO1)c1coc2nc3ccccc3nc12` (stereo not drawn) [MLS000046703], the EC50 is greater than 99000 nM.

`O=C(Nc1ccc2c(c1)OCO2)c1ccc(COc2ccc3c(c2)CCC3)o1` [MLS000048173] returned an EC50 of 446 nM.

Take `COc1ccc(CCC(=O)Nc2ccc(-c3noc(-c4ccc(OC)c(OC)c4)n3)cc2)cc1` [MLS000049572]: a half-maximal effect (EC50) was put at 2460 nM.

`O=C(Nc1ccc(-c2cn3ccsc3n2)cc1)C1CC1` [MLS000053249] came in with a concentration for a half-maximal effect (EC50) of 653 nM.

For the molecule `COc1ccc(NC(=O)c2ccc3c(c2)OCO3)cc1Cl` [MLS000053302], the half-maximal effective concentration (EC50) is greater than 99000 nM.

Regarding `CS(=O)(=O)c1ccc2nc(NC(=O)C3COc4ccccc4O3)sc2c1` (stereo not drawn) [MLS000056123], the response was half-maximal at 7320 nM (EC50).

In turn, `O=C(Nc1ccc(CN2CCOCC2)cc1)c1cc2ccccc2o1` [MLS000062478] returned a 50% effective concentration (EC50) of 480 nM.

`CC(C)(C)c1cc(NC(=O)C2CCCO2)no1` (stereo not drawn) [MLS000065845] returned a half-maximal effective concentration (EC50) of 2530 nM. Compared with the last molecule, the EC50 is about 5.3-fold higher.

`O=C(NCc1ccco1)c1cc2c(s1)CCCCC2` [MLS000065859] registered an EC50 greater than 1220 nM.

As to `CCOC(=O)c1cc2cc(OC)ccc2[nH]1` [MLS000071430], the 50% effective concentration (EC50) worked out at 1570 nM.

Consider `C=CCn1c(-c2ccccc2)c[nH]c1=S` [MLS000071728], for which a half-maximal response (EC50) required 1470 nM.

Molecule `CCOc1ccc(OCC)c(NC(=O)CSc2nc3c(c(=O)n(C)c(=O)n3C)n2C(C)C)c1` [MLS000072726] displayed an EC50 of 736 nM.

Regarding `Cc1cnc(NC(=O)CSc2nnc(-c3ccccc3)o2)s1` [MLS000077990], a half-maximal effect (EC50) was put at 4140 nM. Against the preceding molecule, the EC50 is about 5.6-fold higher.

As for `CCOC(=O)c1[nH]c2ccc(C)cc2c1N` [MLS000079379], the concentration giving a half-maximal response (EC50) is 731 nM. This EC50 lies about 5.7-fold lower than the previous one.

As for `Nc1nc2c(s1)CCc1c-2cnn1-c1ccccc1` [MLS000085948], a half-maximal response (EC50) required 551 nM. This EC50 and that of the molecule before are within 1.5-fold of each other.

`Cc1cc(C(=O)Nc2sc3c(c2C#N)CCC(C(C)(C)C)C3)no1` (stereo not drawn) [MLS000087312]: the EC50 was 8140 nM.

In turn, `CN(C)C=Nc1ncnc2c1cnn2-c1ccc(C(F)(F)F)cn1` [MLS000087855] gave an EC50 greater than 99000 nM.

For the molecule `CCCc1cc(C(=O)Nc2ccccc2SC)no1` [MLS000116378], the EC50 came out at 9170 nM.

With `CC(=O)c1cccc(NC(=O)c2cnn3ccccc23)c1` [MLS000118777], a half-maximal effect (EC50) was put at 1220 nM. Compared with the last molecule, the EC50 is about 7.5-fold lower.

For the molecule `CCOc1ccc(OCC)c(NC(=O)C2CCCN2S(=O)(=O)c2cccc3cccnc23)c1` (stereo not drawn) [MLS000119093], the midpoint of the response, the EC50, lay at 2160 nM. This EC50 lies about 1.8-fold higher than the previous one.

With `COc1ccccc1Nc1nc2ccccc2[nH]1` [N-(2-methoxyphenyl)-1H-benzimidazol-2-amine], the EC50 is 1620 nM. This EC50 and that of the molecule before are within 1.5-fold of each other.

`CC(=O)Nc1ccc(-c2nc3c(C)cccc3[nH]2)cc1` [SMR000001134] displayed a concentration for a half-maximal effect (EC50) of 747 nM.

`Cc1cc2n(n1)C(c1ccc(N(C)C)cc1)Nc1ccccc1-2` (stereo not drawn) [SMR000015202] registered an EC50 of 10800 nM.

In the case of `CC1(C)CC(=O)C(=CNc2ccccc2)C(=O)C1` [SMR000054233], the concentration giving a half-maximal response (EC50) was greater than 99000 nM.

Turning to `O=c1[nH]c2ccccc2nc1-c1cccs1` [SMR000068248], the EC50 amounted to 3720 nM.

`CN(C)C(=O)CSc1nnc(C23CC4CC(CC(C4)C2)C3)o1` [SMR000077996] showed an EC50 of 5360 nM.

Regarding `CCCCC1CCC(c2nc(-c3ccccn3)no2)CC1` (stereo not drawn) [SMR000105468], the 50% effective concentration (EC50) was determined as 403 nM. Compared with the last molecule, the EC50 is about 13-fold lower.

Regarding `CC1(C)CC(=O)C(=CNc2ccc3[nH]ncc3c2)C(=O)C1` [SMR000111453], the EC50 turned out to be 9880 nM.

On to `COCCn1c(C)cc(C(=O)COC(=O)C23CC4CC(CC(O)(C4)C2)C3)c1C` [[2-[1-(2-methoxyethyl)-2,5-dimethylpyrrol-3-yl]-2-oxoethyl] 3-hydroxyadamantane-1-carboxylate], for which the EC50 came to 741 nM.

Staying with this experiment, now noted: inactive by the depositor's call.
`CCN(CC)c1ccc(-n2cc3c(=O)n(C)c(=O)n(C)c3c2)cc1` [6-(4-Diethylamino-phenyl)-1,3-dimethyl-1,6-dihydro-pyrrolo[3,4-d]pyrimidine-2,4-dione] had a concentration for a half-maximal effect (EC50) of 12500 nM. This lies in the double-digit micromolar range.
